“And” between values parts separate entries of the source, which are not always exact repeats. Equal values may be shown once. Read-outs that look alike come from different tables or passages of the source.

A short description of data set [1]: Reaction with superoxide, hypoxanthine-xanthine oxidase-cytochrome c reduction system. It is filed as biochemical. Particulars: for Apparent rate constant, reaction with superoxide (O2·^−): second order, hypoxanthine-xanthine oxidase-cytochrome c system, new data of this study. The method, then: FIGS. 1A-1G. Cobinamide Functions as a Superoxide Dismutase Mimetic. FIGS. 1A-1B. Chemical structures of aquohydroxo-cobinamide (FIG. 1A) and hydroxo-cobalamin (FIG. 1B). FIGS. 1C, 1E. Increasing concentrations of Chi(III) (FIG. 1C) or Chi(II) (FIG. 1E) were incubated in a hypoxanthine-xanthine oxidase-cytochrome c-catalase system for measuring O2·^−, with the change in absorbance at 550 nm (ΔAbs) plotted versus time. A no substrate (no hypoxanthine) control was included. FIGS. 1D, 1F. The calculated rate of change of absorbance at 550 nm in the absence of Chi(III) or Chi(II) (Vo) divided by the calculated rate in their presence (v) is plotted against the Chi(III) (FIG. 1D) or Chi(II) (FIG. 1F) concentration, respectively. The slope of the fitted line was used to calculate the apparent rate constant according to the following equation: kCbi=slope×kcytochrome c×[cytochrome c], where kcytochrome c=1.4×10^6 M^−1 s^−1 and [cytochrome c]=70 μM^70. The data shown are the mean of duplicate samples from one experiment, with similar results found in two additional experiments. Dotted lines show 95% confidence intervals. FIG. 1G. A 20 μM solution of Chi(III) in DMSO was scanned from 280 to 600 nm yielding the spectrum shown as a black line. An equimolar amount of […] (KO2) dissolved in dimethyl sulfoxide (DMSO) was added and the solution was scanned immediately, yielding the grey line. […] The experiment was conducted three times with identical results.
(§1) Table I. Reaction Rates of Cobinamide (Cbi), Cobalamin, Imisopasem, and MnTBAP with Reactive Oxygen and Nitrogen Species. Reactions of the indicated compounds with O2·^−, ONOO^−, and ·NO are all second order reactions with rate constants in units of M^−1 s^−1. The reactions of Cbi(III) and Cbi(II) with H2O2 are third order with rate constant units of M^−2 s^−1. Chi(II) and cobalamin(II) bind nitric oxide, so a Ka is shown in units of M^−1. For the new data presented in this study, rate constants were measured for O2·^− using a hypoxanthine-xanthine oxidase-cytochrome c system, for H2O2 using a H2O2-specific sensor (World Precision Instruments), and for ONOO^− using a stopped-flow instrument. Published rate constants for Cu/Zn and Mn superoxide dismutases (SOD) and catalase are shown for reference.^a,b Letters and numbers in parenthesis refer to footnotes and references, respectively.
The reaction of cobinamide with O2·^− was studied in two different systems, generating O2·^− using a hypoxanthine-xanthine oxidase system.
The first system contained 100 μM hypoxanthine and 0.1 unit xanthine oxidase in 20 mM sodium phosphate buffer, pH 7.1. The amount of O2·^− was measured by following reduction of ferric-cytochrome c (70 μM) at 550 nm as described previously^65. Catalase was included (32 units per sample), because xanthine oxidase generates both O2·^− and H2O2, and the latter can re-oxidize the ferro-cytochrome c product^34,66. The reaction was followed for 10 min. A no substrate blank lacking hypoxanthine was included.
In both systems, the experiments were conducted in the absence and presence of the indicated concentrations of Cbi(III) or Chi(II) 65.
Catalase was included in the reaction mixture, because the hypoxanthine-xanthine oxidase system also generates H2O2 and the latter can oxidize the ferro-cytochrome c product back to ferric-cytochrome c, thereby interfering with the kinetic measurement^34.

Data set [2] can be described thus: Reaction with hydrogen peroxide, H2O2-specific electrode. In kind it is biochemical. As for the experimental part: (§2) FIGS. 2A-2F. Cobinamide Functions as a Catalase Mimetic and Reacts with Peroxynitrite. […]. Hydrogen peroxide (final concentration 50 μM) was added to solutions containing increasing concentrations of Chi(III) (FIG. 2A) or Chi(II) (FIG. 2C), and the H2O2 concentration was measured over time using a H2O2-specific electrode. The log of the velocity in the presence of Chi(III) (FIG. 2B) or Chi(II) (v) (FIG. 2D) over the velocity in their absence (Vo) is plotted against the log of their concentrations at 20 min over their concentrations at zero time. These plots yield a reaction order with respect to Chi(III) and Cbi(II) of 0.7. The experiments were repeated three times with similar results. Dotted lines show 95% confidence intervals. FIG. 2E. […] The Chi(III) spectra are slightly different from those shown in FIG. 1G because at pH 11, dihydroxo-cobinamide is generated, whereas at pH 7.1, aquohydroxo-cobinamide is the predominant species. The spectra of aquohydroxo- and dihydroxo-cobinamide are known to be different^65. FIG. 2F. Varying concentrations of Chi(II) from 1 to 10 μM were mixed with 10 μM peroxynitrite in a stopped-flow instrument, and absorption at 315 nm was monitored for 0.5 sec. The results for 5 μM Cbi(II) are shown; red circles are the observed data, and the black line is a two-phase non-linear regression curve generated by Prism 7.04 software. […] The experiment was repeated three times with similar results. Dotted lines show 95% confidence intervals.
as §1
Both Cbi(III) and Chi(II) react with H2O2, and the reaction was essentially first order with respect to Cbi(III) and Cbi(II) (FIG. 2A-D), and second order with respect to H2O2 for both cobinamide species. […]

A short description of data set [3]: Reaction with peroxynitrite, stopped-flow. In kind it is biochemical. The method, then:
as §2
as §1, with “Chi(II) and cobalamin(II) bind nitric oxide, so a Ka is shown in units of M^−1.” left out, “Published rate constants for Cu/Zn and Mn superoxide dismutases (SOD) and catalase are shown for reference.^a,b Letters and numbers in parenthesis refer to footnotes and references, respectively.” left out

For data set [4], the system named is Jun N-terminal kinase (JNK) phosphorylation in H9c2 cells. Kind of data set: H2O2-induced JNK phosphorylation, immunoblotting. In kind it is cell-based, rat. Particulars: for JNK phosphorylation in H2O2-treated cells: H9c2, 100 μM H2O2 30 min, drugs at 100 μM. From the text:
(§3) FIGS. 3A-3H. […] FIGS. 3A-3B. […] FIG. 3A. […] FIG. 3B. […] FIGS. 3C-3D. […] FIG. 3D. […] FIGS. 3E-3F. […] FIG. 3E. Representative blots are shown. […] FIG. 3F. […] FIG. 3G. […] FIG. 3H.
A general note: A western blot detects proteins with antibodies after separation by electrophoresis.

For data set [5] the following is noted: even on exposure to air.
Experimental: H9c2 cells were incubated for 30 min with vehicle, 2.5 μM cobinamide, or 5 μM rotenone, the latter in the absence or presence of 2.5 μM cobinamide, imisopasem, MnTBAP, or cobalamin; 5 μM MitoSOX was added during the last 10 min. The cells were incubated with 1 mg/ml DAPI for 3 min to counterstain nuclei, and then visualized under a fluorescence microscope. […] Equal-sized representative areas for each condition are shown for MitoSOX staining (red fluorescence) and the same area showing merged MitoSOX and DAPI staining. […] The amount of red fluorescence was quantified by Image J analysis. Data are the mean±SD of three independent experiments; in each experiment two separate equal-sized areas were analyzed containing ˜75 cells per area. […] H9c2 cells were incubated for 10 min with 10 μM JC-1, washed once with PBS, and then incubated for 30 min with vehicle, 2.5 μM cobinamide, or 5 μM rotenone in the absence or presence of 2.5 μM of the indicated drugs as described in Panels A, B. FIG. 3C. Cells were visualized under a fluorescence microscope and equal-sized representative areas of each condition are shown, with red and green fluorescence shown for the same area. […] The amount of red and green fluorescence was quantified by Image J analysis and the red to green ratio was calculated. The slides were analyzed by an operator who was blinded to the specific conditions. Data are the mean±SD of three independent experiments; in each experiment two separate equal-sized areas were analyzed containing ˜75 cells per area. […] Blots from four independent experiments were analyzed by densitometric scanning (Li-Cor Odyssey software) in a range where band intensity was linear. The ratio of the pJNK band to GAPDH was calculated, and the results normalized to control untreated cells. […] The UV-visible spectrum of Chi(III) in 50 mM potassium phosphate buffer, pH 7.4 was recorded before (black line) and immediately after adding a three-fold molar excess of ascorbate (blue line), cysteine (teal line), or reduced glutathione (GSH, pink line). […]
The conditions of data set [6]: literature values, cited from earlier work; for Rate constant, reaction with nitric oxide (·NO), published: second order.
Data set [7] has as its system H9c2 rat embryonal cardiomyocytes. Kind of data set: Mitochondrial superoxide content, MitoSOX Red fluorescence. It is filed as cell-based. Particulars: H9c2, 5 μM rotenone 30 min, drugs at 2.5 μM. The method, then:
as §3
H9c2 cells were plated on glass cover slips in 24 well dishes, and 16 h later the medium was changed to phenol red-free DMEM supplemented with 20 mM Hepes, 0.1% fetal bovine serum, and 0.5% bovine serum albumin. […] MitoSOX Red is a dihydroethidium derivative containing triphenyl-phosphonium, which localizes it to respiring mitochondria. Its reaction with O2·^− yields 2-hydroxy-mitoethidium (2-OH-Mito-E″), whereas its reaction with other oxidative species yields mitoethidium (Mito-E^+)^67. These two oxidative derivatives have overlapping fluorescence spectra, but they can be distinguished by high performance liquid chromatography (HPLC)^68. Rotenone increased 2-OH-Mito-E^+ about two-fold, without increasing Mito-E^+. Thus, any increased fluorescence observed on treating cells with rotenone could be ascribed to an increase in 2-OH-Mito-E^+, and decreased fluorescence by an anti-oxidant in rotenone-treated cells was likely from a decrease in 2-OH-Mito-E^+.
(§4) The cells were then washed once with PBS, placed back in the DMEM experimental medium, and incubated with the indicated drugs for 30 min. At the end of the incubation period, nuclei of both the MitoSOX Red- and JC-1-treated cells were stained with […] 4′,6-diamidino-2-phenyl-indole (DAPI) for 3 min, washed once with PBS, and returned to the DMEM experimental medium. The cover slips were removed from the wells, mounted in the DMEM experimental medium, and red (MitoSOX Red and JC-1 aggregates), green (JC-1 monomers), and blue (DAPI) fluorescence intensity was assessed using a Keyence BZ-X700 fluorescence microscope at the following paired excitation/emission wavelengths, respectively: 560/630, 490/525, and 360/460 nm.
To assess if cobinamide reduces oxidative stress in cells and to compare its […] efficacy to that of cobalamin, imisopasem, and MnTBAP, several sets of experiments were performed. First, whether cobinamide reduces mitochondrial-generated O2·^− was evaluated using the fluorescent probe MitoSOX Red. H9c2 rat embryonal cardiomyocytes were treated with rotenone, an inhibitor of complex I, to increase mitochondrial O2·^−. […] Monitoring the UV-visible spectrum of cobinamide is a sensitive means to assess ligand binding^38.

Data set [8] has as its system H9c2 cells. The data set can be described thus: Mitochondrial membrane potential, JC-1 red to green fluorescence. In kind it is cell-based, rat. Particulars: H9c2, 5 μM rotenone 30 min, drugs at 2.5 μM. The method, then: as §3, §4
Increased mitochondrial O2·^− by rotenone would be expected to reduce the mitochondrial membrane potential (ΔΨm), due in part to activation of uncoupling proteins^39. […] Rotenone caused an almost complete loss of red fluorescence and a striking increase in green fluorescence in the cells, indicating a marked decrease in ΔΨm (FIGS. 3C-3D).

The subject of data set [9] is COS-7 cells. The method, then:
as §3
Finally, whether cobinamide could alleviate the effects of oxidative stress induced by yet another mechanism in a different cell type was tested using paraquat-treated COS-7 cells. Paraquat generates O2·^− through a redox cycling mechanism and increases both intracellular O2·^− and H2O2^42.

In data set [10] the test system is D. melanogaster. The data set can be described thus: Survival of fruit flies during paraquat poisoning. It is filed as in vivo.
Experimental: The number of live flies was counted each day for 7 d. The experiment was repeated seven times, for a total of 70 flies per condition. The percent surviving flies was calculated; error bars represent standard deviations and are shown in one direction only for sake of clarity. […] Chi, cobinamide in Panel A and histidyl-cobinamide in Panels B-K; Imp, imisopasem; MnTP, MnTBAP; CbL, cobalamin; DNPH, 2,4-dinitrophenylhydrazine; ND, non-diabetic; D, diabetic; Veh, vehicle.
To test cobinamide in a whole animal, D. melanogaster was selected for initial studies, and oxidative stressed was increased in the files by administering paraquat in their food. Cobinamide was again compared to imisopasem, MnTBAP, and hydroxocobalamin, all administered in food.
For data set [11] the following is noted: second order; literature values; cited from earlier work.
For data set [12] the following is noted: literature values; not strictly comparable with third-order constants; cited from earlier work.
For data set [13] the following is noted: second order; literature values; cited from earlier work. The source holds these as a separate data set.

As for `C/C1=C2/[N-][C@H]([C@H](CC(N)=O)[C@@]2(C)CCC(=O)NC[C@@H](C)O)[C@]2(C)N=C(/C(C)=C3N=C(/C=C4N=C1[C@@H](CCC(N)=O)C\4(C)C)[C@@H](CCC(N)=O)[C@]\3(C)CC(N)=O)[C@@H](CCC(N)=O)[C@]2(C)CC(N)=O.[Co]` [Cbi(II)], the “Apparent rate constants, reaction with O2·^−” value in data set [1] (hypoxanthine-xanthine oxidase-cytochrome c reduction system, catalase included, exponent shared in the sentence) came to 1.92e+08 M⁻¹ s⁻¹. In data set [1], the “Apparent rate constant, reaction with superoxide (O2·^−)” value came to 1.9e+08 M⁻¹ s⁻¹. The “Reaction order with respect to the cobinamide species in the reaction with H2O2” value in data set [2] (50 μM H2O2) was 0.7. For the same compound, the “Apparent rate constant, reaction with hydrogen peroxide (H2O2)” value in [2] (third order, H2O2-specific sensor, new data of this study) is given as 3.7 × 10^4 M^−2 s^−1. Moreover, the “Fold higher ONOO^− rate constant than MnTBAP” value in data set [3] (compared with published MnTBAP value) was more than 50 fold. In addition, the “Fold higher ONOO^− rate constant than cobalamin(II)” value in [3] (compared with published cobalamin(II) value) is given as “more than 10 fold”. Besides, the “Apparent rate constant, reaction with peroxynitrite (ONOO^−)” value in data set [3] (second order, stopped-flow, 10 μM peroxynitrite, new data of this study) was 6.34×10^6 M^−1 s^−1 and 6.3 × 10^6 (^c) ^ M^−1 s^−1. The “JNK phosphorylation in H2O2-treated cells” value in data set [4] is recorded as “reduced JNK phosphorylation to a level that was indistinguishable from vehicle-treated cells”. Besides, the “JNK phosphorylation or total cellular JNK in the absence of H2O2” value in [4] (H9c2, drug alone) is “neither Cbi(III), Cbi(II) nor the other three drugs affected JNK phosphorylation”. Further, the “Persistence of the reduced state” value in data set [5] is “remains in the reduced state for several hours”. Moreover, the “Ka, binding of nitric oxide (·NO), published” value in [6] is recorded as “Ka: 1.3 × 10^10 (51) M^−1”.
For `O=C(O)c1ccc(-c2c3nc(c(-c4ccc(C(=O)O)cc4)c4ccc([n-]4)c(-c4ccc(C(=O)O)cc4)c4nc(c(-c5ccc(C(=O)O)cc5)c5ccc2[n-]5)C=C4)C=C3)cc1.[Mn+3]` [MnTBAP, manganese(III)tetrakis(4-benzoicacid)porphyrin], in data set [7], the “MitoSOX red fluorescence in rotenone-treated cells” value is “reduced the fluorescent signal substantially”. Also, the “JC-1 red to green fluorescence ratio (ΔΨm) in rotenone-treated cells” value in data set [8] is “modest degrees of recovery”. Moreover, the “JNK phosphorylation in H2O2-treated cells” value in data set [4] is recorded as “small non-significant effects”. Moreover, in [9] (COS-7, 1 mM paraquat 3 h, 100 μM drug, counted 48 h later), the “Effect on cell growth of paraquat-treated cells” value is “neither imisopasem nor MnTBAP had an effect”. Further, the “Effect on mortality of paraquat-exposed flies” value in data set [10] (20 mM paraquat with 0.8 mM drug in food, over 7 d) is on record as “lesser effect”. Also, the “Rate constant, reaction with superoxide (O2·^−), published” value in data set [11] is approximately 4.0 M⁻¹ s⁻¹. In addition, the “Rate constant, reaction with hydrogen peroxide (H2O2), published” value in [12] was 5.8. For the same compound, in data set [13], the “Rate constant, reaction with peroxynitrite (ONOO^−), published” value was ~1 × 10^5 (27) M^−1 s^−1. Also, the “Rate constant, reaction with nitric oxide (·NO), published” value in data set [6] is “No activity (28)”.
As for hydroxo-cobalamin, the “Apparent rate constant, reaction with superoxide (O2·^−)” value in data set [1] is 9.4e+06 M⁻¹ s⁻¹. For the same compound, the “MitoSOX red fluorescence in rotenone-treated cells” value in data set [7] was “reduced the fluorescent signal substantially”. In data set [8], the “JC-1 red to green fluorescence ratio (ΔΨm) in rotenone-treated cells” value was “modest degrees of recovery”. In addition, the “JNK phosphorylation in H2O2-treated cells” value in data set [4] is “no effect”. Moreover, in [9], the “Effect on cell growth of paraquat-treated cells” value is “improved cell growth”. Besides, the “Effect on mortality of paraquat-exposed flies” value in data set [10] (in vivo) is on record as “no significant effect”. Further, the “Rate constant, reaction with hydrogen peroxide (H2O2), published” value in data set [12] was 4.5 × 10^6. Moreover, the “Rate constant, reaction with nitric oxide (·NO), published” value in data set [6] was “No activity (51, 71)”.

These data come from patent publication US20260069606A1, “Oxidative Stress and Diabetes Treatment with Cobinamide” (The Regents of the University of California, priority 2022, published 2026).
